Type in all cases: biochemical
Common to all, as to settings: 25 mM HEPES pH 7.0, 10 mM MgCl2, 5 mM DTT, 10 mM substrate, 30 C, 30 min

One test concerns the target T1, RtTPS2 (Rhodomyrtus tomentosa, UniProt A0A385J6Y6).
T1 construct: gene TPS2; TPS-b subfamily
T1 sequence (A0A385J6Y6 1-599): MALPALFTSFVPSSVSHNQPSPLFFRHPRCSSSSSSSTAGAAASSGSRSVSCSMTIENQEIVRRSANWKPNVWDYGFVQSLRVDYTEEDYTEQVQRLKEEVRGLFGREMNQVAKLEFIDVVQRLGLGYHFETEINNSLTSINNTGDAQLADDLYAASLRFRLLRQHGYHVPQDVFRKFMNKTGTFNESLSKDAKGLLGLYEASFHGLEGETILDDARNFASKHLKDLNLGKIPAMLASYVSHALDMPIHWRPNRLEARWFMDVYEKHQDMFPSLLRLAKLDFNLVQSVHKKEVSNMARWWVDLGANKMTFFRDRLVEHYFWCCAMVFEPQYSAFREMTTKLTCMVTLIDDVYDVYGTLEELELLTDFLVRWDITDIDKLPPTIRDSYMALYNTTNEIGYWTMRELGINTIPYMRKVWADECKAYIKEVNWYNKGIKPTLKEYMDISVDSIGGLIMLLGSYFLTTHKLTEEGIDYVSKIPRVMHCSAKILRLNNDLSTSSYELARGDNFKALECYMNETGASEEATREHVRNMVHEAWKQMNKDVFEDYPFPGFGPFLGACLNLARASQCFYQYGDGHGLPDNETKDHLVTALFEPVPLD
As to the kind of experiment: product formation by GC-MS and chiral GC-FID.

For test [1], the target named is T2, RtTPS1 (Rhodomyrtus tomentosa, UniProt A0A385J6X8).
T2 construct: gene TPS1; 38 residues upstream of RRX8W motif; TPS-b subfamily
T2 sequence (A0A385J6X8 1-581): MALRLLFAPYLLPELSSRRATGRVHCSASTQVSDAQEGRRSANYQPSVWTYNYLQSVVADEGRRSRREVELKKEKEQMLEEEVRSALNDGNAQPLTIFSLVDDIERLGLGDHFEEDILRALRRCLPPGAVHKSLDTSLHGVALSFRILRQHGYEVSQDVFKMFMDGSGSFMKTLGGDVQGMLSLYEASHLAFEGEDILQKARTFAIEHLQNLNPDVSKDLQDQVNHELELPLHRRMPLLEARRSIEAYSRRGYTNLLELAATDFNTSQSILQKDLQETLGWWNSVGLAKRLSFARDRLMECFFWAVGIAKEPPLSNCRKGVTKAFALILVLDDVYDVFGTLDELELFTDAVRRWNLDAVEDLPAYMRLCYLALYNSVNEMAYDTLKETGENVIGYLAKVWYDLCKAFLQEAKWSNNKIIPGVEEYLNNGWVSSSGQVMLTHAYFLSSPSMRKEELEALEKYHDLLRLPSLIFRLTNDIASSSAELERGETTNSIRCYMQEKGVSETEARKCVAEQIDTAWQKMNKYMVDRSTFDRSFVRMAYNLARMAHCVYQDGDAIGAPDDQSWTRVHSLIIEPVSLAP
Briefly: product formation by GC-MS and chiral GC-FID.

For test [2], the target named is T3, RtTPS3 (Rhodomyrtus tomentosa, UniProt A0A385J6Y9).
T3 construct: gene TPS3; 52 residues upstream of RRX8W motif; TPS-a subfamily
T3 sequence (A0A385J6Y9 1-597): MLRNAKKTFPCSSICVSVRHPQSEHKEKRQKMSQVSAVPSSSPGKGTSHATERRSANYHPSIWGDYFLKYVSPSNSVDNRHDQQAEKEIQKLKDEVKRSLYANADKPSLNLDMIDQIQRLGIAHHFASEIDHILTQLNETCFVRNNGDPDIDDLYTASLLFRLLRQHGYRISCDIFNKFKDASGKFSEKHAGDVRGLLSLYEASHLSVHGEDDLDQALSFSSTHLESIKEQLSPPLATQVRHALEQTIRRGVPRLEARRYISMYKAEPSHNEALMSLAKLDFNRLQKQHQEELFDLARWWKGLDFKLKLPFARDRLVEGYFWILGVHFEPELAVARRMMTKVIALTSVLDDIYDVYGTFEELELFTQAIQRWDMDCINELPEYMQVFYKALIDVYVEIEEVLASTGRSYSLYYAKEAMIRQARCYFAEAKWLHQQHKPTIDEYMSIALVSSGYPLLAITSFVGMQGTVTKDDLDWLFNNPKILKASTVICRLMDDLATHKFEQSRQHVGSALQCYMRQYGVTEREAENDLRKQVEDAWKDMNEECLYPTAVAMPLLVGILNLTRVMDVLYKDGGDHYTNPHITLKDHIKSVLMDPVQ
As to the kind of experiment: product formation by GC-MS and chiral GC-FID.

Another test concerns the target T4, RtTPS4 (Rhodomyrtus tomentosa, UniProt A0A385J6Y5).
T4 construct: gene TPS4; 48 residues upstream of RRX8W motif; TPS-a subfamily
T4 sequence (A0A385J6Y5 1-594): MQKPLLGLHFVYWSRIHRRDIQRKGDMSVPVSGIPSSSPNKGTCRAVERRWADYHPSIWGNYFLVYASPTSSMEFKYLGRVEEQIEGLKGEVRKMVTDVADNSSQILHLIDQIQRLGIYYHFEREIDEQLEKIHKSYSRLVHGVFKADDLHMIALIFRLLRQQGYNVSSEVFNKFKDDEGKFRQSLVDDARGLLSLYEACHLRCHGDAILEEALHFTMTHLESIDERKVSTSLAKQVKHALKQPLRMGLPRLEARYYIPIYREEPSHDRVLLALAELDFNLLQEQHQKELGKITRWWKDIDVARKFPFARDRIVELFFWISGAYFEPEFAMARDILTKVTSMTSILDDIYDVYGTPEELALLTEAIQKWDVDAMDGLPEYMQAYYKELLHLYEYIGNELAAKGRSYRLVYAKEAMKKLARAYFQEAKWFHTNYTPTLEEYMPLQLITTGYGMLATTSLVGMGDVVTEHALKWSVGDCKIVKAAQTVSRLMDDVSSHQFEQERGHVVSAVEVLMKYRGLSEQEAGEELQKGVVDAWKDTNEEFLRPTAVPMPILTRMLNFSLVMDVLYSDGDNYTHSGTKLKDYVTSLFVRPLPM
As to the kind of experiment: product formation by GC-MS and chiral GC-FID.

Test [3] has as its target T3, RtTPS3. Briefly: product formation by GC-MS.
Test [4] has as its target T2, RtTPS1. As to the kind of experiment: product formation by GC-MS.

With `CC(C)=CCC/C(C)=C/COP(=O)(O)OP(=O)(O)O` [GPP], the “product formation by GC-MS and chiral GC-FID” value on RtTPS2 was “RtTPS1-4 produce mainly (+)-α-pinene and (+)-β-pinene”; on RtTPS1 [1], “RtTPS1-4 produce mainly (+)-α-pinene and (+)-β-pinene”; on RtTPS3 [2], “RtTPS1-4 produce mainly (+)-α-pinene and (+)-β-pinene”; on RtTPS4, “RtTPS1-4 produce mainly (+)-α-pinene and (+)-β-pinene”.

For `CC(C)=CCC/C(C)=C/CC/C(C)=C/COP(=O)(O)OP(=O)(O)O` [FPP], the “product formation by GC-MS” value at RtTPS3 [3] was “RtTPS1 and RtTPS3 are also active with FPP, producing β-caryophyllene”; at RtTPS1 [4], “RtTPS1 and RtTPS3 are also active with FPP, producing β-caryophyllene”.

Source of the values: publication PMC6117411, “De novo Transcriptome Characterization of Rhodomyrtus tomentosa Leaves and Identification of Genes Involved in α/β-Pinene and β-Caryophyllene Biosynthesis” (Frontiers in Plant Science, 2018).
